The text below walks through data of patent US11820994B2, “Methods of inducing apomictic or sexual reproduction” (priority 2018, dated 2023).

Test [1] deals with B. stricta ovules. Put plainly: In vivo floral dip in epiBL solution, dyad formation. The settings on record: flower buds dipped 3 h in 10 μmol L−1 epiBL; controls 7%. As for the experimental part:
(§1) FIG. 40 Frequencies of B. stricta ovules (dyads and tetrads) that were undergoing dyad formation (sexual or diplosporous) at the end of pistil treatment as affected by i) a 3 h in vivo floral dip in solutions containing epibrassinolide (epiBL) or ii) culturing of pistils in epiBL-containing media with in vitro culture of pistils initiated when pistils were in the 1-I or the 2-III to 2-IV stages. Numbers of correctly-staged ovules (dyads plus tetrads) per data point averaged 53 and ranged from 27-82.
(§2) epiBL is the naturally occurring and most biologically active form of BR. Applications of epiBL to pistils of sexual B. stricta, in vivo or in vitro, caused MMC to abort meiosis and instead produce dyads (FIG. 40). […] This induced 31% dyad formation, compared to 7% for the controls (a frequency often observed in sexual plants where they represent an intermediate stage of sexual meiosis). A similar dyad induction frequency (29%) was obtained by culturing 1-I to 2-II staged B. stricta pistils on a 0.1 μmol L−1 epiBL medium for 2 d (FIG. 40).

In test [2] the test system is B. stricta ovules. Put plainly: In vitro culture of pistils on epiBL-containing medium, dyad formation. The format is cell-based. As for the experimental part: as §1, §2
Test [3] concerns Arabidopsis ovules. The test is described as follows: Topical application of BR or glucose to intact pistils, apomeiosis induction. The format is in vivo, Arabidopsis thaliana. The method, then:
Most of the functional megaspores from these treatments originated by Taraxacum-type diplospory (FIG. 42) with frequent subepidermal layer of cells with or without a parietal cell. A few cases of Antennaria-type diplospory were also observed (FIG. 43).
(§3) Cytological Analyses. Arabidopsis, Drummond's rockcress and cowpea floral buds were fixed in FAA (v/v: 3.7% formaldehyde, 5% acetic acid, 50% ethanol) for 48 h and cleared in 2:1 benzyl benzoate dibutyl phthalate (BBDP) (80): 1) 70% EtOH, 30 min; 95% EtOH, ≥4 h (2×); 95% EtOH:BBDP (2:1), 2 h; 95% EtOH:BBDP (1:2), 4 h; BBDP, 4 h; BBDP, overnight. Cleared pistils were mounted (up to 16 per slide) and measured from the pedicel base to the top of the stigma. […] DAPI fluorescence was detected with a Zeiss LSM 510 confocal microscope with excitation at 408 nm, dichroic reflector at HFT488 nm and detection at 450-650 nm. […]
Presence of the following ovule characteristics were recorded: MMCs, Antennaria type diplosporous 1-2 nucleate ES, sexual or Taraxacum type diplosporous dyads, sexual tetrads, sexual or Taraxacum type diplosporous 1-2 nucleate ES, AI and AES. […]
For topical applications, sepals of floral buds were separated, and pistil lengths were measured using a dissecting microscope. […]

The test system of test [4] is Arabidopsis ovules. Put plainly: Pistil culture experiments with 5-azaC, BR (epiBL), DTBA, H2O2 and sugars, meiosis to apomeiosis. Conditions: BR alone. The class given is cell-based, Arabidopsis thaliana. From the text:
(§4) To address redox instability, pistils were exposed to the antioxidant DTBA, an antioxidant that protects thiol groups in proteins from oxidization. To address bioenergetic stress, pistils were exposed to sugars. Glucose signaling is one of the most ancient and central signaling pathways in animals and plants and is involved in gene expression, primary and secondary metabolism, and regulation of growth and development (98). In Arabidopsis, rates of glycolysis and mitochondrial bioenergetics are sensed by TOR, which then control root meristem activation (18). If sufficient sugar is supplied, TOR should be activated. Active TOR protects BZR1 and other important BR-regulated enzymes from degradation, and this leads to plant growth (25). Factorial experiments were designed to test the effects of sucrose, glucose, epiBL, DTBA and 5-azaC on apomixis induction. These were designed for each of three sexual species, B. stricta, arabidopsis and cowpea. The experiments were performed and ratios of apomeiosis to meiosis were documented.
Two factorial experiments were conducted using immature arabidopsis pistils. In the first experiment, no 5-azaC, 5-azaC in the pretreatment only, or 5-azaC in both the pretreatment and the tissue culture medium were tested.
Cytological Analyses. Arabidopsis, Drummond's rockcress and cowpea floral buds were fixed in FAA (v/v: 3.7% formaldehyde, 5% acetic acid, 50% ethanol) for 48 h and cleared in 2:1 benzyl benzoate dibutyl phthalate (BBDP) (80): 1) 70% EtOH, 30 min; 95% EtOH, ≥4 h (2×); 95% EtOH:BBDP (2:1), 2 h; 95% EtOH:BBDP (1:2), 4 h; BBDP, 4 h; BBDP, overnight. Cleared pistils were mounted (up to 16 per slide) and measured from the pedicel base to the top of the stigma. Ovule development stages were studied using a BX53 microscope equipped with differential interference contrast optics and a MicroFire 599809 camera (Olympus, Center Valley, Pa., USA). For chromosome staining, pistils were soaked in 95% ethanol that contained 0.1 mg L^−1 4′,6-diamidino-2-phenylindole (DAPI). Callose was stained by soaking DAPI stained pistils in aqueous aniline blue (Millipore Sigma, Darmstadt, Germany) (124). DAPI fluorescence was detected with a Zeiss LSM 510 confocal microscope with excitation at 408 nm, dichroic reflector at HFT488 nm and detection at 450-650 nm. Callose was distinguished from DAPI by detection at 550-650 nm.
Presence of the following ovule characteristics were recorded: MMCs, Antennaria type diplosporous 1-2 nucleate ES, sexual or Taraxacum type diplosporous dyads, sexual tetrads, sexual or Taraxacum type diplosporous 1-2 nucleate ES, AI and AES. Developmental stages for the majority of ovules per pistil were recorded, and pistil lengths for the following stages (125) were recorded: 1-II, ovule meristems protruding from placentae (precedes MMC formation); 2-IV, meiosis; 3-III, vacuole in immature ES beginning to appear; 4-VI, nuclear divisions in endosperm underway. To determine average timing of meiosis onset, pistils primarily containing premeiotic (2-III) ovules were located under low light conditions 1 h before the lights came on in the morning. Corresponding sepals were marked with a small point permanent marker. Pistils were then randomly harvested for analysis when the lights came on and 3 h thereafter.
Pistils were aseptically excised, but not disinfested, at the early pre-MMC to MMC stages and incubated in vitro. The basal culture medium for arabidopsis and Drummond's rockcress was MS (126) (Caisson Laboratories, Inc., Smithfield, UT USA) with 20 g L^−1 sucrose or glucose and solidified with 1.45 g L^−1 Phytogel (MilliporeSigma).

In test [5] the test system is B. stricta (Drummond's rockcress) ovules. The test is described as follows: Pistil culture factorial experiment with sucrose, glucose, epiBL, DTBA and 5-azaC. The format is cell-based, Boechera stricta.
From the text: as §4
Both the carbohydrate variable and the other components variable were highly significant (P<0.001). Additionally, three ovules from the sucrose plus epiBL treatment (epiBL in the pretreatment and in the medium) had formed aposporous embryo sacs (AES). Also, two ovules, one from the sucrose-epiBL-epiBL treatment and one from the glucose-DTBA-DTBA treatment, had formed Antennaria-type diplosporous embryo sacs (FIGS. 48A-48H).
as §3
Presence of the following ovule characteristics were recorded: MMCs, Antennaria type diplosporous 1-2 nucleate ES, sexual or Taraxacum type diplosporous dyads, sexual tetrads, sexual or Taraxacum type diplosporous 1-2 nucleate ES, AI and AES. Developmental stages for the majority of ovules per pistil were recorded, and pistil lengths for the following stages (125) were recorded: 1-II, ovule meristems protruding from placentae (precedes MMC formation); 2-IV, meiosis; 3-III, vacuole in immature ES beginning to appear; 4-VI, nuclear divisions in endosperm underway. […]

For a further test, the system named is Arabidopsis embryo sacs. The test is described as follows: Induction of parthenogenesis and autonomous endosperm formation in pistils. The class given is cell-based. Conditions: 2 μM BR or 50 mM glucose prior to central cell callose deposition. The method, then: (§5) Scale bars: 50 μm (FIG. 51A), 20 μm (FIGS. 51B-51E).
FIG. 52 Parthenogenesis in putatively diploid Arabidopsis embryo sacs induced by treatment of pistils in emasculated flowers with 2 μM BR or 50 mM glucose. To prevent fertilization, stigmas of pistils were clipped while anthers were immature. These pistils were also treated premeiotically with BR and glucose.
Functional apomixis requires not only apomeiosis but also parthenogenesis and, in plants, endosperm formation.

For a further test, the system named is Arabidopsis anthers. Put plainly: Anthers cultured in vitro with epiBL, unreduced pollen microspores. Conditions: 0.1 μM epiBL on 2% sucrose medium for 24 h. The class given is cell-based.
From the text: as §5

For the compound `CC(C)[C@@H](C)[C@@H](O)[C@H](O)[C@@H](C)[C@H]1CC[C@H]2[C@@H]3COC(=O)[C@H]4C[C@H](O)[C@H](O)C[C@]4(C)[C@H]3CC[C@]12C` [epiBL, epibrassinolide], in the test on B. stricta ovules [1], the dyad formation is 31%. Moreover, the dyad induction frequency in the test with B. stricta ovules [2] (1-I to 2-II staged pistils on 0.1 μmol L−1 epiBL medium for 2 d) is 29%. Besides, the “unreduced embryo sacs forming from epiBL-induced dyads” value in the test with B. stricta ovules [2] (epiBL treatments) is “only rarely observed”. Besides, the “ratios of observed dyads” value in the test on B. stricta ovules [2] (epiBL treatments (in vivo or in vitro)) is 30%. For the same compound, the apomeiotic dyad formation result in the test on Arabidopsis ovules [3] (intact pistils treated with BR or glucose solutions (2 μM BR or 50 mM glucose)) was “induced high frequency apomeiotic dyad formation”. For the same compound, the Taraxacum-type diplospory induction result in the test on Arabidopsis ovules [3] (topical applications 24 h before or immediately before meiosis) is listed as “induced Taraxacum-type diplospory”. In the test on Arabidopsis ovules [4], the AES formation result is “Low levels” and the “ovules with meiosis stopped, MMC undergoing Taraxacum type dyad or ES formation” value is on record as 45%. In addition, in test [5] (sucrose plus epiBL, epiBL in the pretreatment and in the medium), the “number of ovules that formed aposporous embryo sacs (AES)” value is “three”. In addition, the “number of ovules that formed Antennaria-type diplosporous embryo sacs” value in test [5] (sucrose-epiBL-epiBL treatment) was “one”. Further, the “callose deposition, parthenogenesis and autonomous endosperm formation” value in the test with Arabidopsis embryo sacs is “prevented stress-associated callose deposition and activated parthenogenesis and autonomous endosperm formation”. The unreduced pollen microspores result with Arabidopsis anthers is reported as “Unreduced pollen dyads of microspores”.
